These results are taken from US8809361B2, “2,3-dihydrofuro[2,3-c]pyridines, their use as modulators of the G-protein-coupled receptor GPR119 and pharmaceutical compositions thereof” (Boehringer Ingelheim International GmbH, priority 2012, dated 2014).

For this assay, the target named is T1, human GPR119 (Homo sapiens, UniProt Q8TDV5).
T1 construct: expression vector for human GPR119 cDNA (Acc. No. NP_848566); expressed in transfected cells
T1 sequence (Q8TDV5 1-335): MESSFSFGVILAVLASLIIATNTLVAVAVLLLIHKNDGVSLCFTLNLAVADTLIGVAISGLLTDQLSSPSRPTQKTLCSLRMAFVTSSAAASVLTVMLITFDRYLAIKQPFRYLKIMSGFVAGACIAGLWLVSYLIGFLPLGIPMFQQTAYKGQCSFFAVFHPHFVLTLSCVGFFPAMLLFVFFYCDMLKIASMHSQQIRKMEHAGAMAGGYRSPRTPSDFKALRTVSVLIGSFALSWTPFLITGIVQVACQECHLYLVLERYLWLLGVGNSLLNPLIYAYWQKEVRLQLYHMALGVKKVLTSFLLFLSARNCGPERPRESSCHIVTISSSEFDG
Kind of assay: GPR119 activation / intracellular cAMP stimulation, AlphaScreen cAMP Assay in Min-6/hGPR119 cells. The class given is cell-based. Conditions: MIN6 cells stably transfected with human GPR119, 45 minutes incubation at room temperature. The procedure: The compounds of formula I according to the invention modulate the activity of the G-protein-coupled receptor GPR119. The effect of the compounds on the activation of GPR119 and on the stimulation of intracellular cAMP concentration is determined using the AlphaScreen cAMP Assay Kit (Cat. No. #6760625R) made by PerkinElmer.
MIN6 cells [Miyazaki J et al., Endocrinology. 1990 July; 127(1):126-32] are stably transfected with an expression vector for human GPR119 cDNA (Acc. No. NP_848566). Min-6/hGPR119 cells are cultured in DMEM, 10% FBS, 50 μM β-mercaptoethanol, 0.3 mg/mL Geniticin, 2 mM GlutaMAX at 37° C., 5% CO2. For the assay, the cells are seeded in Optiplates (white, 384-well, 160W-barcoded, TC, sterile with lid, Cat. No. #6007688 (Perkin Elmer); 10000 cells/well; 50 μL). The plates covered with lids are then incubated for 24 hours at 37° C., 5% CO2. After the medium is aspirated from the wells completely, 10 ill of the test compound are added, the compounds are diluted using stimulating buffer (140 mM NaCl, 3.6 mM KCl, 0.5 mM NaH2PO4, 0.5 mM MgSO4, 1.5 mM CaCl2, 10 mM Hepes, 5 mM NaHCO3; pH 7.4. 0.5 mM IBMX and 0.1% BSA, the final DMSO concentration is 1%). After 45 minutes incubation at room temperature (approx. 20° C.), the cAMP concentrations are determined using the AlphaScreen cAMP Assay Kit (Cat. No. #6760625R from PerkinElmer).
(Bead proximity is the source of the signal in Alpha formats.)
In general, EC50 refers to the concentration that produces a half-maximal response. A low value points to higher potency in that assay. For `CC(C)(C)OC(=O)N1CCC2(CC1)CC1(Cc3cc(-c4ccc(S(C)(=O)=O)cc4)ncc3O1)C2` [Example 1, 5-(4-Methylsulfonyl-phenyl)-1″-tert-butoxycarbonyl-dispiro[2,3-dihydrofuro[2,3-c]pyridine-2,1′-cyclobutane-3′,4″-piperidine]], the EC50 stood at 21 nM. Then `CC(C)(C)OC(=O)N1CCC2(CC1)CC1(Cc3cc(C4=CCN(S(C)(=O)=O)CC4)ncc3O1)C2` [Example 2, 5-(1-Methanesulfonyl-1,2,3,6-tetrahydro-pyridin-4-yl)-1″-tert-butoxycarbonyl-dispiro[2,3-dihydrofuro[2,3-c]pyridine-2,1′-cyclobutane-3′,4″-piperidine]], with 50 nM; and `CC(C)(C)OC(=O)N1CCC2(CC1)CC1(Cc3cc(-c4ccc(S(C)(=O)=O)cc4F)ncc3O1)C2` [Example 3, 5-(2-Fluoro-4-methylsulfonyl-phenyl)-1″-tert-butoxycarbonyl-dispiro[2,3-dihydrofuro[2,3-c]pyridine-2,1′-cyclobutane-3′,4″-piperidine]], with 15 nM.

With `CCc1cnc(N2CCC3(CC2)CC2(Cc4cc(-c5ccc(S(C)(=O)=O)cc5)ncc4O2)C3)nc1` [Example 4, 1″-(5-Ethyl-pyrimidin-2-yl)-5-(4-methylsulfonyl-phenyl)-dispiro[2,3-dihydrofuro[2,3-c]pyridine-2,1′-cyclobutane-3′,4″-piperidine]], the EC50 turned out to be 18 nM. In the case of `CS(=O)(=O)c1ccc(-c2cc3c(cn2)OC2(C3)CC3(CCN(CC4(C(F)(F)F)CC4)CC3)C2)cc1` [Example 5, 5-(4-Methylsulfonyl-phenyl)-1″-[(1-trifluoromethyl-cyclopropyl)-methyl]-dispiro[2,3-dihydrofuro[2,3-c]pyridine-2,1′-cyclobutane-3′,4″-piperidine]] it was 362 nM; in that of `CC(C)(F)CN1CCC2(CC1)CC1(Cc3cc(-c4ccc(S(C)(=O)=O)cc4)ncc3O1)C2` [Example 6, 1″-(2-Fluoro-2-methyl-propyl)-5-(4-methylsulfonyl-phenyl)-dispiro[2,3-dihydrofuro[2,3-c]pyridine-2,1′-cyclobutane-3′,4″-piperidine]], 135 nM; in that of `Cc1cnc(N2CCC3(CC2)CC2(Cc4cc(-c5ccc(S(C)(=O)=O)cc5)ncc4O2)C3)nc1` [Example 7, 1″-(5-Methyl-pyrimidin-2-yl)-5-(4-methylsulfonyl-phenyl)-dispiro[2,3-dihydrofuro[2,3-c]pyridine-2,1′-cyclobutane-3′,4″-piperidine]], 42 nM. In the case of `CC1=C(c2cc3c(cn2)OC2(C3)CC3(CCN(C(=O)OC(C)(C)C)CC3)C2)CCN(S(C)(=O)=O)C1` [Example 8, 5-(1-Methanesulfonyl-5-methyl-1,2,3,6-tetrahydro-pyridin-4-yl)-1″-tert-butoxycarbonyl-dispiro[2,3-dihydrofuro[2,3-c]pyridine-2,1′-cyclobutane-3′,4″-piperidine]] it was 19 nM; in that of `CS(=O)(=O)N1CC=C(c2cc3c(cn2)OC2(C3)CC3(CCN(c4ncc(Cl)cn4)CC3)C2)CC1` [Example 9, 1″-(5-Chloro-pyrimidin-2-yl)-5-(1-methanesulfonyl-1,2,3,6-tetrahydro-pyridin-4-yl)-dispiro[2,3-dihydrofuro[2,3-c]pyridine-2,1′-cyclobutane-3′,4″-piperidine]], 6 nM. Compound `CC(C)OC(=O)N1CCC2(CC1)CC1(Cc3cc(C4=CCN(S(C)(=O)=O)CC4)ncc3O1)C2` [Example 10, 1″-(Isopropyloxycarbonyl)-5-(1-methanesulfonyl-1,2,3,6-tetrahydro-pyridin-4-yl)-dispiro[2,3-dihydrofuro[2,3-c]pyridine-2,1′-cyclobutane-3′,4″-piperidine]] yielded a concentration giving a half-maximal response (EC50) of 16 nM. `CS(=O)(=O)N1CC=C(c2cc3c(cn2)OC2(C3)CC3(CCN(c4ccc(C(F)(F)F)cn4)CC3)C2)CC1` [Example 11, 5-(1-Methanesulfonyl-1,2,3,6-tetrahydro-pyridin-4-yl)-1″-(5-trifluoromethyl-pyridin-2-yl)-dispiro[2,3-dihydrofuro[2,3-c]pyridine-2,1′-cyclobutane-3′,4″-piperidine]] registered an EC50 of 13 nM. Regarding `CC1(OC(=O)N2CCC3(CC2)CC2(Cc4cc(C5=CCN(S(C)(=O)=O)CC5)ncc4O2)C3)CC1` [Example 12, 5-(1-Methanesulfonyl-1,2,3,6-tetrahydro-pyridin-4-yl)-1″-(1-methyl-cyclopropyloxycarbonyl)-dispiro[2,3-dihydrofuro[2,3-c]pyridine-2,1′-cyclobutane-3′,4″-piperidine]], the response was half-maximal at 11 nM (EC50). In the case of `CC(C)(C)OC(=O)N1CCC2(CC1)CC1(Cc3cc(-c4ccc(S(C)(=O)=O)nc4)ncc3O1)C2` [Example 13, 5-(6-Methanesulfonyl-pyridin-3-yl)-1″-tert-butoxycarbonyl-dispiro[2,3-dihydrofuro[2,3-c]pyridine-2,1′-cyclobutane-3′,4″-piperidine]] it was 42 nM; in that of `CC(C)(C)OC(=O)N1CCC2(CC1)CC1(Cc3cc(-c4ccc(C#N)cc4F)ncc3O1)C2` [Example 14, 5-(4-Cyano-2-fluoro-phenyl)-1″-tert-butoxycarbonyl-dispiro[2,3-dihydrofuro[2,3-c]pyridine-2,1′-cyclobutane-3′,4″-piperidine]], 60 nM. `CC(C)Oc1cnc(N2CCC3(CC2)CC2(Cc4cc(C5=CCN(S(C)(=O)=O)CC5)ncc4O2)C3)nc1` [Example 15, 1″-(5-Isopropoxy-pyrimidin-2-yl)-5-(1-methanesulfonyl-1,2,3,6-tetrahydro-pyridin-4-yl)-dispiro[2,3-dihydrofuro[2,3-c]pyridine-2,1′-cyclobutane-3′,4″-piperidine]] came in with an EC50 of 10 nM. Then `CCCc1cnc(N2CCC3(CC2)CC2(Cc4cc(C5=CCN(S(C)(=O)=O)CC5)ncc4O2)C3)nc1` [Example 16, 5-(1-Methanesulfonyl-1,2,3,6-tetrahydro-pyridin-4-yl)-1″-(5-n-propyl-pyrimidin-2-yl)-dispiro[2,3-dihydrofuro[2,3-c]pyridine-2,1′-cyclobutane-3′,4″-piperidine]], with 4 nM.

In turn, `CS(=O)(=O)N1CC=C(c2cc3c(cn2)OC2(C3)CC3(CCN(c4ncc(C5CC5)cn4)CC3)C2)CC1` [Example 17, 1″-(5-Cyclopropyl-pyrimidin-2-yl)-5-(1-methanesulfonyl-1,2,3,6-tetrahydro-pyridin-4-yl)-dispiro[2,3-dihydrofuro[2,3-c]pyridine-2,1′-cyclobutane-3′,4″-piperidine]] came in with an EC50 of 9 nM. `CC(C)(C)OC(=O)N1CCC2(CC1)CC1(Cc3cc(-c4ccc(CS(C)(=O)=O)cc4)ncc3O1)C2` [Example 18, 5-(4-Methylsulfonylmethyl-phenyl)-1″-tert-butoxycarbonyl-dispiro[2,3-dihydrofuro[2,3-c]pyridine-2,1′-cyclobutane-3′,4″-piperidine]] displayed an EC50 of 24 nM. In the case of `CC(C)(C)OC(=O)N1CCC2(CC1)CC1(Cc3cc(C4CCN(S(C)(=O)=O)CC4)ncc3O1)C2` [Example 19, 5-(1-Methanesulfonyl-piperidin-4-yl)-1″-tert-butoxycarbonyl-dispiro[2,3-dihydrofuro[2,3-c]pyridine-2,1′-cyclobutane-3′,4″-piperidine]] it was 106 nM; in that of `CS(=O)(=O)N1CC=C(c2cc3c(cn2)OC2(C3)CC3(CCN(c4nnc(C(F)(F)F)s4)CC3)C2)CC1` [Example 20, 5-(1-Methanesulfonyl-1,2,3,6-tetrahydro-pyridin-4-yl)-1″-(5-trifluoromethyl-[1,3,4]thiadiazol-2-yl)-dispiro[2,3-dihydrofuro[2,3-c]pyridine-2,1′-cyclobutane-3′,4″-piperidine]], 10 nM; in that of `CC(C)(C)OC(=O)N1CCC2(CC1)CC1(Cc3cc(N4CCN(S(C)(=O)=O)CC4)ncc3O1)C2` [Example 21, 5-(4-Methanesulfonyl-piperazin-1-yl)-1″-tert-butoxycarbonyl-dispiro[2,3-dihydrofuro[2,3-c]pyridine-2,1′-cyclobutane-3′,4″-piperidine]], 77 nM. In the case of `CCNC(=O)c1ccc(-c2cc3c(cn2)OC2(C3)CC3(CCN(C(=O)OC(C)(C)C)CC3)C2)cc1` [Example 22, 5-(4-Ethylaminocarbonyl-phenyl)-1″-tert-butoxycarbonyl-dispiro[2,3-dihydrofuro[2,3-c]pyridine-2,1′-cyclobutane-3′,4″-piperidine]] it was 28 nM.
